Source: US20040014779A1, “Methods and compositions related to IRM compounds and toll-like recptor pathways” (3M Innovative Properties Company, priority 2001, published 2004)

Tests used:
[1] = target: T1, TLR6 (Homo sapiens, UniProt Q9Y2C9, P680H); test: TNF-α production by THP-1 cells transfected with TLR6DN vs vector control; format: cell-based
T1 construct: expressed in transfected cells; host or cells: THP-1 (pIRES vector)
From the text: The human TLR6 dominant negative construct was generated from human PBMC cDNA using the same strategy as the murine TLR6 dominant negative. The proline to histidine mutation for human TLR6 was introduced at amino acid 680 along with an Apa LI restriction enzyme site (5′ sense: SEQ ID NO 5; 5′ antisense: SEQ ID NO 6; 3′ sense: SEQ ID NO 7; 3′ antisense: SEQ ID NO 8).
(§1) The amplified 5′ and 3′ sections of each human dominant negative TLR was inserted into pCR-Blunt II-TOPO for sequence verification. The 5′ and 3′ sections were joined together when subcloned into pIRES (Clontech, Palo Alto, Calif.) for expression in mammalian cells.
(§2) THP-1 cells (maintained at cell number less than 1×10^6 cells/ml) were co-transfected with the plamid vector containing either the TLR6DN or TLR7DN construct and with a murine H2K^k plasmid (Miltenyi Biotec Inc., Auburn, Calif.) in a 4:1 ratio of TLR plasmid to H2K^k plasmid. Transfection of THP-1 cells was carried out using the transfection reagent FuGENE 6 (Roche Diagnostics Corp., Indianapolis, Ind.) according to the manufacturer's specifications. […]
(§3) TNF-α levels were measured with a commercial Human TNF-α ELISA kit (Biosource International, Inc., Camarillo, Calif.) according to the manufacturer's specifications. […]

[2] = test system: TLR7; test: TNF-α production by THP-1 cells transfected with TLR7DN vs vector control; format: cell-based, human
From the text: The human TLR7 dominant negative construct was generated in a manner similar to that used to generate the human TLR6 dominant negative construct. The proline to histidine mutation for human was introduced at amino acid 932 along with a Bam HI restriction enzyme site (5′ sense: SEQ ID NO 9; 5′ antisense: SEQ ID NO 10; 3′ sense: SEQ ID NO 11; 3′ antisense: SEQ ID NO 12).
as §1, §2, §3

[3] = target: T2, TLR6 (Mus musculus, UniProt Q9EPW9); test: IRM-stimulated TNF-α production by RAW 264.7 cells overexpressing TLR6; format: cell-based, murine
T2 construct: expressed in transfected cells; host or cells: RAW 264.7 (pIRES vector)
T2 sequence (Q9EPW9 28-795): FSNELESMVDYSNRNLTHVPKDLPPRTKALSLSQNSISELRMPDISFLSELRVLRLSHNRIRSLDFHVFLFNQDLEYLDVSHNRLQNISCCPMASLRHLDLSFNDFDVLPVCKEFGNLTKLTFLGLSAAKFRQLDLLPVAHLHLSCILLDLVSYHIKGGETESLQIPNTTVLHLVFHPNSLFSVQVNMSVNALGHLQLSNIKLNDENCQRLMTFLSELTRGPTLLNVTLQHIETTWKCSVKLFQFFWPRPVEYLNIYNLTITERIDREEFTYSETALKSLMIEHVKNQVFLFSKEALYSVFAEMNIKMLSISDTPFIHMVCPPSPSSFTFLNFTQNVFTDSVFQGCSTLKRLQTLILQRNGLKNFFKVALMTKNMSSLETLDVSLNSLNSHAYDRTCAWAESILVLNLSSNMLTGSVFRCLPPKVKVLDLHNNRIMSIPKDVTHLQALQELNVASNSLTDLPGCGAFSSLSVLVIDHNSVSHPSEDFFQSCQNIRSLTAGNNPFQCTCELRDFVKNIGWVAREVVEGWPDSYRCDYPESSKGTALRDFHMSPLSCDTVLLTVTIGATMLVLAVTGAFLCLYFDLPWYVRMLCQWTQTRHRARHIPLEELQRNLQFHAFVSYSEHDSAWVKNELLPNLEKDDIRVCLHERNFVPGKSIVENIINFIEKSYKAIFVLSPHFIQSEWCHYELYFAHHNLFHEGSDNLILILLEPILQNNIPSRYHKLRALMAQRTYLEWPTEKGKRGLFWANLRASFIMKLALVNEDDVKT
T2 sequence (Q9QUN7 25-784 partner): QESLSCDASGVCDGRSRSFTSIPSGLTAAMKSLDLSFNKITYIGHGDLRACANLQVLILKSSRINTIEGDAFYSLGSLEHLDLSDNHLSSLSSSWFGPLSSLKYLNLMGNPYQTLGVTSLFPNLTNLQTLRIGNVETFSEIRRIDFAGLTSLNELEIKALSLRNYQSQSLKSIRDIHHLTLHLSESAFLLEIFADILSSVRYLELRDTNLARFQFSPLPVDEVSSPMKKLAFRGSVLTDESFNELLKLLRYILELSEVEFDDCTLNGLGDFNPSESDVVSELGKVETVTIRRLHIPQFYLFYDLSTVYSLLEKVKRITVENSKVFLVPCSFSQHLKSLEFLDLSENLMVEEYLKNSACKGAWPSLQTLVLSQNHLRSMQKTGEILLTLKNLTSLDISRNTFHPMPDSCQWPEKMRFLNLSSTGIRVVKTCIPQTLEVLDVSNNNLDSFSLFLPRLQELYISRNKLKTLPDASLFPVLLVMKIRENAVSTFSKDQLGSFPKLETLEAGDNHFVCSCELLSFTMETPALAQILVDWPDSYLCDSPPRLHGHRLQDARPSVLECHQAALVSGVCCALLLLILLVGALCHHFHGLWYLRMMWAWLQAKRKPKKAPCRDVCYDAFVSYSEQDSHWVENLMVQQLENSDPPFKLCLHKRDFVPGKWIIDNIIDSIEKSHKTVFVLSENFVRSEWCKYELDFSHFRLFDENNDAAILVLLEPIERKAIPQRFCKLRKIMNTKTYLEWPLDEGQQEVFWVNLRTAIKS
From the text: The murine TLR wild-type vectors were generated by PCR amplification from RAW 264.7 cell cDNA with TLR6 specific primers (sense primer: SEQ ID NO 13; antisense primer: SEQ ID NO 14) or TLR7 specific primers (sense primer: SEQ ID NO 15; antisense primer: SEQ ID NO 16) by Pfu Turbo DNA polymerase kit (Stratagene, La Jolla, Calif.). The PCR products were inserted into pCR-Blunt II-TOPO for sequence verification and then subcloned into pIRES (BD Biosciences Clontech, Palo Alto, Calif.) for expression in mammalian cells.
THP-1 cells or RAW 264.7 cells were cultured and transfected with the wild type TLR 6 or wild type TLR 7 plasmids described above. The transfections were performed as in Example 1 with a 4:1 ratio of wild-type TLR to H2K plasmid (THP-1 cells) or CD4 (RAW 264.7 cells).
RAW 264.7 cells were stimulated with various concentrations of resiquimod and analyzed as described in Example 1. Results are provided in Table 4 and are expressed as fold increase in TNF-α production as compared to control transfected RAW 264.7 cells.

[4] = stimulus 3 μM, 18 hours, relative to vector control

T1 sequence (Q9Y2C9 32-796 P680H): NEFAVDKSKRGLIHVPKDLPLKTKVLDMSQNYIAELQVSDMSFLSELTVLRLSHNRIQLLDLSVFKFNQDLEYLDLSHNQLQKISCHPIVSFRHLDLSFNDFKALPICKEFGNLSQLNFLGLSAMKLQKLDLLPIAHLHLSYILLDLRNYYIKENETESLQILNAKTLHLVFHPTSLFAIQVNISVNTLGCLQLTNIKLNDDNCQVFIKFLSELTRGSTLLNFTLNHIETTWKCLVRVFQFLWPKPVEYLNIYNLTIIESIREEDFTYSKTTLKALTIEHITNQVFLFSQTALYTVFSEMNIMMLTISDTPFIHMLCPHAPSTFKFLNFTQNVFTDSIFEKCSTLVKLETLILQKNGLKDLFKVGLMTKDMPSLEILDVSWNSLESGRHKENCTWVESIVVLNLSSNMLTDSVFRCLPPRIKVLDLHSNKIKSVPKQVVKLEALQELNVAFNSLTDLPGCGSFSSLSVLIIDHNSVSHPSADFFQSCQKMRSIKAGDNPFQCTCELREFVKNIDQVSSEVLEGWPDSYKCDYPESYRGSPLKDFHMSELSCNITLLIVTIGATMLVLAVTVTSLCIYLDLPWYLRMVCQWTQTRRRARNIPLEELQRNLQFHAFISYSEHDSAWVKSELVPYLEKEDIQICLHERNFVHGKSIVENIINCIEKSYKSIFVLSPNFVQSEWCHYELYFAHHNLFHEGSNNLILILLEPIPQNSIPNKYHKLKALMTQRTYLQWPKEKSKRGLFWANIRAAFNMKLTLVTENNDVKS
T1 sequence (O60603 19-784 partner limits assumed): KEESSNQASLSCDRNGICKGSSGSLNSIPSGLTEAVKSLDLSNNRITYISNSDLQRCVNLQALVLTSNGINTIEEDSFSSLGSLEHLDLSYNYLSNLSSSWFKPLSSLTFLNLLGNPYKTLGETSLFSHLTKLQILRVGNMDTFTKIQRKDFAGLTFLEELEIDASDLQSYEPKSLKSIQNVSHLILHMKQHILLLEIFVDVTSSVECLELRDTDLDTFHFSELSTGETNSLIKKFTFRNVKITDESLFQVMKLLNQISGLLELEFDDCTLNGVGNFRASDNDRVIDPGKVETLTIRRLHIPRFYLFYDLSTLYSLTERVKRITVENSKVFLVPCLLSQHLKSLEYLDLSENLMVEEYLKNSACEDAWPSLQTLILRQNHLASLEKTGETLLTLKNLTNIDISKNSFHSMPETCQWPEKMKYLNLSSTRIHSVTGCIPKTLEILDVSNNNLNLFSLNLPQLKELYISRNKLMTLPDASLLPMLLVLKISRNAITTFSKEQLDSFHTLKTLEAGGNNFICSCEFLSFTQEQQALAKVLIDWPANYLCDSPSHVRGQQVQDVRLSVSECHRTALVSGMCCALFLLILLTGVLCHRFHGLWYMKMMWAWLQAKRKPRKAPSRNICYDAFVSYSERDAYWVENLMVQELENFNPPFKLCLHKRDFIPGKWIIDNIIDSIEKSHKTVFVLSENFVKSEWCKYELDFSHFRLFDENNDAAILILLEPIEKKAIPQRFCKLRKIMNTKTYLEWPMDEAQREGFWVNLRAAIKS

Effect of TLR6DN on stimulus-induced TNF-α production (in words) ([1]; compared to control vector): inhibited | TLR6DN % inhibition of TNF-α production [1, 4]: 70.1% | Fold increase in TNF-α production over control, TLR6 ([3]; RAW 264.7 overexpressing TLR6, 0.0004 μM): 9.6 fold | Fold increase in TNF-α production over control, TLR6 ([3]; RAW 264.7 overexpressing TLR6, 0.001 μM): 8.0 fold | Fold increase in TNF-α production over control, TLR6 ([3]; RAW 264.7 overexpressing TLR6, 0.004 μM): 9.2 fold | Fold increase in TNF-α production over control, TLR6 ([3]; RAW 264.7 overexpressing TLR6, 0.012 μM): 3.5 fold | Fold increase in TNF-α production over control, TLR6 ([3]; RAW 264.7 overexpressing TLR6, 0.037 μM): 3.9 fold | Fold increase in TNF-α production over control, TLR6 ([3]; RAW 264.7 overexpressing TLR6, 1 μM): 1.4 fold | Fold increase in TNF-α production over control, TLR6 ([3]; RAW 264.7 overexpressing TLR6, 3 μM): 1.7 fold | Fold increase in TNF-α production over control, TLR6 ([3]; RAW 264.7 overexpressing TLR6, 10 μM): 1.8 fold | TLR6 agonist character (in words) ([3]; from TLR6 overexpression in RAW 264.7 cells): agonist
SMILES: CCOCc1nc2c(N)nc3ccccc3c2n1CC(C)(C)O [Resiquimod, 4-amino-2-ethoxymethyl-α,α-dimethyl-1H-imidazo[4,5-c]quinoline-1-ethanol]
Effect of TLR7DN on stimulus-induced TNF-α production (in words) ([2]; compared to control vector): inhibited | TLR7DN % inhibition of TNF-α production [2, 4]: 55.3%
